Data: patent US20220267277A1, “DOPAMINE RECEPTOR D1 AGONISTS AND METHODS OF USE” (Sanford Burnham Prebys Medical Discovery Institute, priority 2019, published 2022)
Where two headings read alike, the source gives them in different places.

Legend:
[1] = system: YAP/TAZ nuclear localization in human lung fibroblasts; assay: YAP/TAZ nuclear localization in human lung fibroblasts (FIG. 1)
Col1a1 = conditions: 10 μM; precision cut lung slices cultured for 3 days; aged mice (24 months) injured with bleomycin
DR1 = biological target: T1, DR1 (Homo sapiens, UniProt P21728); assay: DR1 agonism EC50 (Example B-1, Table 4); assay type: cell-based
T1 construct: endogenous in cells; host or cells: IPF patient derived fibroblasts
T1 sequence (P21728 whole entry): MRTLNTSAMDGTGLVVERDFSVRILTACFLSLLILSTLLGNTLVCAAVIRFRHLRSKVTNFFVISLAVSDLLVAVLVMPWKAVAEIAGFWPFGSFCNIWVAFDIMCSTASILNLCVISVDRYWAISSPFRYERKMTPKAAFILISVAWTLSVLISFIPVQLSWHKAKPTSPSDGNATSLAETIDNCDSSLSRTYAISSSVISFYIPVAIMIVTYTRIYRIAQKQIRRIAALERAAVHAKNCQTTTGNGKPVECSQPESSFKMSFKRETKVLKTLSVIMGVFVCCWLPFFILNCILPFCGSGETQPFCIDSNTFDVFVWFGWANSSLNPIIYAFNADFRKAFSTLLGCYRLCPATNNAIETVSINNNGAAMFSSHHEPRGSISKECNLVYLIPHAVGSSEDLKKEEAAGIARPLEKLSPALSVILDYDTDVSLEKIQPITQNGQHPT
Protocol: cAMP Assay: IPF patient derived fibroblasts are plated in EMEM containing 10% FBS overnight. […] Twenty minutes prior to cell lysis the media is removed and cells are treated with “induction buffer” containing nonselective phosphodiesterase inhibitors and the indicated concentration of compound(s). Luminescence is measured on a Flexstation 3 (Molecular Devices) plate reader.
(§1) Example B-1: Enzyme Assay of Inhibition of YAP/TAZ and DR1

YAP/TAZ = assay: Inhibition of YAP/TAZ (Example B-1, Table 4); assay type: cell-based
Source text: as §1

| Compound | inhibition of YAP/TAZ nuclear localization [1] | expression of Col1a1 (Col1a1) | EC50 (DR1; read-out: DR1 EC50) [µM] | IC50 (YAP/TAZ) [µM] | EC50 (DR1) [µM] |
| --- | --- | --- | --- | --- | --- |
| Cc1cc2c(cc1O)CN[C@H]1CCc3cc(O)c(O)cc3[C@H]21 (relative stereo) [Compound 3, Trans-(6a,12b)-2-methyl-5,6,6a,7,8,12b-hexahydro-benzo[a]phenanthridine-3,10,11-triol] | inhibit YAP/TAZ nuclear localization | inhibits expression of Col1a1 | – | – | – |
| COc1c(O)cc(C2CNCc3sccc32)cc1Cl (centres unmarked) [3-chloro-2-methoxy-5-(4,5,6,7-tetrahydrothieno[2,3-c]pyridin-4-yl)phenol] | – | – | 1 to 20 | 1 to 20 | – |
| Oc1cc(C2CNCc3sccc32)cc(Cl)c1O (centres unmarked) [3-chloro-5-(4,5,6,7-tetrahydrothieno[2,3-c]pyridin-4-yl)benzene-1,2-diol] | – | – | < 1 | 1 to 20 | – |
| Oc1ccc(C2CNCc3cnccc32)cc1O (centres unmarked) [4-(1,2,3,4-tetrahydro-2,7-naphthyridin-4-yl)benzene-1,2-diol] | – | – | – | 1 to 20 | – |
| CCCc1csc2c1C(c1ccc(OC)c(OC)c1)CNC2 (centres unmarked) [4-(3,4-dimethoxyphenyl)-3-propyl-4,5,6,7-tetrahydrothieno[2,3-c]pyridine] | – | – | 1 to 20 | 1 to 20 | – |
| COc1ccc(C2CNCc3sccc32)cc1OC (centres unmarked) [4-(3,4-dimethoxyphenyl)-4,5,6,7-tetrahydrothieno[2,3-c]pyridine] | – | – | 1 to 20 | 1 to 20 | – |
| COc1cc(C2CNCc3sccc32)cc(Cl)c1OC (centres unmarked) [4-(3-chloro-4,5-dimethoxyphenyl)-4,5,6,7-tetrahydrothieno[2,3-c]pyridine] | – | – | 1 to 20 | 1 to 20 | – |
| CCCc1csc2c1C(c1ccc(O)c(O)c1)CNC2 (centres unmarked) [4-(3-propyl-4,5,6,7-tetrahydrothieno[2,3-c]pyridin-4-yl)benzene-1,2-diol] | – | – | 1 to 20 | 1 to 20 | – |
| CN1Cc2sccc2C(c2ccc(O)c(O)c2)C1 (centres unmarked) [4-(6-methyl-4,5,6,7-tetrahydrothieno[2,3-c]pyridin-4-yl)benzene-1,2-diol] | – | – | 1 to 20 | 1 to 20 | – |
| Oc1cc2c(cc1O)[C@@H]1c3ccc(O)c(O)c3CN[C@@H]1CC2 [(6aR,12bR)-5,6,6a,7,8,12b-hexahydrobenzo[a]phenanthridine-3,4,10,11-tetraol] | – | – | – | 1 to 20 | – |
| Oc1ccc2c(c1)[C@@H]1c3cc(O)c(O)cc3CC[C@H]1NC2 [(6aR,12bS)-5,6,6a,7,8,12b-hexahydrobenzo[a]phenanthridine-2,10,11-triol] | – | – | – | 1 to 20 | < 1 |
| Oc1cc2c(cc1O)[C@H]1c3ccc(O)c(O)c3CN[C@@H]1CC2 [(6aR,12bS)-5,6,6a,7,8,12b-hexahydrobenzo[a]phenanthridine-3,4,10,11-tetraol] | – | – | – | 1 to 20 | – |
| Cc1cc2c(cc1O)CN[C@H]1CCc3cc(O)c(O)cc3[C@H]21 [(6aS,12bR)-2-methyl-5,6,6a,7,8,12b-hexahydrobenzo[a]phenanthridine-3,10,11-triol] | – | – | – | 1 to 20 | < 1 |
| CCCc1csc2c1[C@@H](c1ccc(O)c(O)c1)CNC2 [(R)-4-(3-propyl-4,5,6,7-tetrahydrothieno[2,3-c]pyridin-4-yl)benzene-1,2-diol] | – | – | 1 to 20 | 1 to 20 | – |
| Oc1ccc([C@H]2CNCc3sccc32)cc1O [(R)-4-(4,5,6,7-tetrahydrothieno[2,3-c]pyridin-4-yl)benzene-1,2-diol] | – | – | < 1 | 1 to 20 | – |
| CCCc1csc2c1[C@H](c1ccc(O)c(O)c1)CNC2 [(S)-4-(3-propyl-4,5,6,7-tetrahydrothieno[2,3-c]pyridin-4-yl)benzene-1,2-diol] | – | – | 1 to 20 | 1 to 20 | – |
| Oc1ccc([C@@H]2CNCc3sccc32)cc1O [(S)-4-(4,5,6,7-tetrahydrothieno[2,3-c]pyridin-4-yl)benzene-1,2-diol] | – | – | < 1 | 1 to 20 | – |
| (6aR,12bS)-10,11-dimethoxy-2-methyl-5,6,6a,7,8,12b-hexahydrobenzo[a]phenanthridin-3-ol [Compound 4a] | inhibit YAP/TAZ nuclear localization | – | – | – | – |
